Data on 28 molecules can be found in patent US8431700B2, “Alkylsulfonyl-2,3-dihydrospiro[indene-1,4′-piperidine] analogs as GlyT1 inhibitors, methods for making same, and use of same in treating psychiatric disorders” (Vanderbilt University, priority 2009, dated 2013).

pIC50: −log10 of the molar value. Bounds are passed on as bounds.

Test [1] concerns the target T1, GlyT1 (Homo sapiens, UniProt P48067).
T1 construct: Human placental choriocarcinoma cells endogenously expressing GlyT1; host or cells: JAR human placental choriocarcinoma cells
T1 sequence (P48067 1-706): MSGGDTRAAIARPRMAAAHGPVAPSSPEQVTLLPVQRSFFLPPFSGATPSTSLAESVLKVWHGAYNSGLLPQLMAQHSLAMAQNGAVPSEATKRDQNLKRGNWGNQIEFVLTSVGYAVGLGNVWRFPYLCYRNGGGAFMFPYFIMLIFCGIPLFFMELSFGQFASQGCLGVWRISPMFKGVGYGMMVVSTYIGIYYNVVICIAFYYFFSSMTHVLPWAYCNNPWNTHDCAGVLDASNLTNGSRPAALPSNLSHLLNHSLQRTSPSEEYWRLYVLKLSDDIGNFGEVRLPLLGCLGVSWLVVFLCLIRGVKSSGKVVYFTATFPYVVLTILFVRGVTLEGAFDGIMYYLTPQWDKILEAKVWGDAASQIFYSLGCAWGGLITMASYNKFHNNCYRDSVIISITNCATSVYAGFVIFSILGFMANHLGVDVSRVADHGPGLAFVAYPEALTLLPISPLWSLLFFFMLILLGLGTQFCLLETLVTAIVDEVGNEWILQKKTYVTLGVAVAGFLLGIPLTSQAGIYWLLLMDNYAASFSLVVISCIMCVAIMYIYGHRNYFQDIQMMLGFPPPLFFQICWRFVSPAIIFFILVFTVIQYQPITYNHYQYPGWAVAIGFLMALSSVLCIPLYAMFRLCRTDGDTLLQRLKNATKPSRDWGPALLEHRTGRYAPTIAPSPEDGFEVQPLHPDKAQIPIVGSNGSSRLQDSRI
The experiment in a line: [14C]-glycine uptake in JAR cells endogenously expressing GlyT1 (scintillation proximity assay). In kind it is cell-based. As to conditions: 10 μM [14C]-glycine, 3 h, read-out: Potency. An excerpt:
The procedure used was analogous to that disclosed in Williams, J. B.; Mallorga P. J.; Lemaire W.; Williams D. L.; Na S.; Patel S.; Conn J. P.; Pettibone D. J.; Austin C.; Sur C.; “Development of a scintillation proximity assay for analysis of Na+/Cl−-dependent neurotransmitter transporter activity,” ANAL. BIOCHEM. 2003 Oct. 1; 321(1):31-7.
Human placental choriocarcinoma cells (JAR cells, ATCC No. HTB-144) were obtained from the American Type Culture Collection (Manassas, Va.). JAR cells were cultured in 96-well Cytostar T plates (GE Healthcare No. RPNQ0162) in RPMI 1640 medium (Sigma-Aldrich) containing 10% fetal bovine serum, 10 mM HEPES, 1 mM sodium pyruvate, penicillin (100 μg/ml), and streptomycin (100 μg/ml). Cells were plated at a density of 1.3×10^4 cells/well and grown at 37° C. in a humidified atmosphere of 5% CO2 for 40-48 h. Culture medium was removed from the Cytostar T plate and JAR cells were incubated with 30 μl of TB1A buffer (120 mM NaCl, 2 mM KCl, 1 mM CaCl2, 1 mM MgCl2, 10 mM Hepes, 5 mM L-alanine, pH 7.5 adjusted with 1 M Tris base) with or without multiple concentrations of test compound (added at 2× final concentration) for 1 min. Then 30 μl of [^14C]-glycine (Perkin-Elmer) diluted in TB1A was added to each well to give a final concentration of 10 μM. Cytostar T plates were then incubated in the dark at room temperature for 3 h, sealed with opaque white bottom plate seals (Perkin-Elmer) and clear top plate seals (Topseal A, Perkin-Elmer), and were counted on a Top Count (Packard). Glycine uptake was determined by measuring radioactivity in each well and plotted as a function of concentration of test compound. […] Nonspecific uptake of [^14C]-glycine was determined in the presence of 10 mM cold glycine. [^14C]-taurine (American Radiolabeled Chemicals, Inc.) uptake experiments were performed according to the same protocol except that 10 mM cold taurine was used to determine nonspecific uptake. For GlyT2 assays, COS-7 (ATCC No. CRL-1651) cells were utilized. COS-7 cells were transiently transfected with the human GlyT2 cDNA (Origene Technologies Inc., SC303452) using Fugene 6 (Roche) according to the manufacturer's instructions in Dulbecco's modified Eagle's medium (DMEM, Invitrogen) containing 10% Fetal Bovine Serum, 10 mM HEPES, 1 mM sodium pyruvate, penicillin (100 μg/ml), and streptomycin (100 μg/ml). The following day, the cells were plated at a density of 5×10^5 cells/well in Cytostar T plates and maintained at 37° C. in a humidified atmosphere of 5% CO2 for 24 h. GlyT2 glycine uptake experiments were performed according to the same protocol previously described.

The test system of test [2] is GlyT1. As to conditions: cited from earlier work.
Test [3] deals with T1, GlyT1. The experiment in a line: Saturation [14C]-glycine uptake in JAR cells to determine mode of inhibition. In kind it is cell-based. As to conditions: for Mode of inhibition of GlyT1 glycine transport: with respect to glycine, Eadie-Hofstee analysis. As to the method: To determine the mode of inhibition of GlyT1 inhibitors, a previously published assay for saturation glycine uptake was utilized. Briefly, human placental choriocarcinoma (JAR) cells (ATCC Catalog #HTB-144) were obtained from the American Type Culture Collection (Manassas, Va.). JAR cells were plated at a density of 12,000 cells/well in Cytostar-T 96 well plates (Amersham) in RPMI 1640 Media (Sigma, Catalog #R8758) containing 10 mM HEPES, 1 mM Sodium Pyruvate, 10% fetal bovine serum, 1× Antibiotic/Antimycotic (Invitrogen, Catalog #15240-062), and 4.5 g/L glucose 48 hours prior to the assay. Cell cultures were maintained at 37° C. in an atmosphere of 95% air, 5% CO2. On the day of the assay, culture media was removed, and 30 μL of T1BA buffer (120 mM NaCl, 2 mM KCl, 1 mM CaCl2, 1 mM MgCl2, 10 mM HEPES, 5 mM L-alanine, pH 7.5 using 1M tris base) with or without 2× drug was added to the JAR cells. Plates were incubated for 5 minutes at room temperature, followed by the addition of 30 μL of 2×[^14C]-glycine (111.7 mCi/mmol, obtained from Perkin-Elmer) made up in T1BA Buffer to give final concentrations as indicated. Aliquots of each concentration of [^14C]-glycine were saved in triplicate for direct determination of their concentration via liquid scintillation counting for each assay. Plates were incubated in the dark at room temperature for 3-4 hours and sealed 96-well Cytostar T plates were counted on a Top Count (Perkin-Elmer) with a 1 minute count time per well. Nonspecific uptake was determined in the presence of 10 mM cold glycine. Fixed concentrations of representative compounds and known competitive (ACPPB) and non-competitive inhibitors (NFPS) were included in each assay as comparators.
Data were analyzed by non-linear regression analysis using GraphPad Prism 4.0 (GraphPad, La Jolla, Calif.). Uptake curves were fit to a Michaelis-Menton type equation: V=(Vmax*[S])/(Km+[…]), where V=Velocity in counts per minute (CPM), Vmax=Maximum Velocity in CPM, [S]=Substrate Concentration, and Km is the concentration of substrate to elicit 50% of the Maximal Velocity. Data were additionally plotted as Eadie-Hofstee plots of V versus V/[S] to better visualize the mode of inhibition. […] As an example of the disclosed series of compounds, 9UD was tested side-by-side with known competitive (ACPPB) and non-competitive (NFPS) inhibitors of glycine transport.

As for `CCCS(=O)(=O)N1CCC2(CC1)c1ccccc1CC2NC(=O)c1ccc(Cl)cc1Cl` (single isomer, unassigned) [Compound 7c], the pIC50 at GlyT1 [1] is 5.89.
Regarding `CN(CC[C@@H](Oc1ccc(-c2ccccc2)cc1)c1ccc(F)cc1)CC(=O)O` [(R)-NFPS], the “Duration of increased glycine levels in the prefrontal cortex” value in the test on GlyT1 [2] is over 24 h.
Regarding `CCCS(=O)(=O)N1CCC(c2ccccc2)([C@H](C)NC(=O)c2ccc(Cl)cc2N)CC1` [ACPPB], at GlyT1 [3] (in the presence of 5 nM ACPPB, control Vmax=20508 CPM), the “Vmax of [14C]-glycine transport” value amounted to 21592 CPM. In addition, on GlyT1 [3], the “Mode of inhibition of GlyT1 glycine transport” value is “competitive inhibition”.
For the molecule `CS(=O)(=O)N1CCC2(CC1)c1ccccc1CC2NC(=O)c1ccc(Cl)cc1Cl` (centres unmarked) [Compound 2a], at GlyT1 [1], the pIC50 is under 5.00.
Same read-out and setting: then `CCS(=O)(=O)N1CCC2(CC1)c1ccccc1CC2NC(=O)c1ccc(Cl)cc1Cl` (centres unmarked) [Compound 2b], with under 5.00; and `CCCS(=O)(=O)N1CCC2(CC1)c1ccccc1CC2NC(=O)c1ccc(Cl)cc1Cl` (centres unmarked) [Compound 2c], with 6.35; and `CC(C)S(=O)(=O)N1CCC2(CC1)c1ccccc1CC2NC(=O)c1ccc(Cl)cc1Cl` (centres unmarked) [Compound 2e], with under 5.00.
As for `CCCCS(=O)(=O)N1CCC2(CC1)c1ccccc1CC2NC(=O)c1ccc(Cl)cc1Cl` (centres unmarked) [Compound 2f], the pIC50 on GlyT1 [1] was under 5.00.
On the same count and under the same terms, then `O=C(NC1Cc2ccccc2C12CCN(S(=O)(=O)c1cccs1)CC2)c1ccc(Cl)cc1Cl` (centres unmarked) [Compound 2i], with under 5.00.
As for `Cn1cnc(S(=O)(=O)N2CCC3(CC2)c2ccccc2CC3NC(=O)c2ccccc2Cl)c1` (centres unmarked) [Compound 4a], on GlyT1 [1], the pIC50 was 7.74.
On to `Cn1cnc(S(=O)(=O)N2CCC3(CC2)c2ccccc2CC3NC(=O)c2ccc(Cl)cc2)c1` (centres unmarked) [Compound 4b], for which the pIC50 at GlyT1 [1] is 7.82.
As for `Cn1cnc(S(=O)(=O)N2CCC3(CC2)c2ccccc2CC3NC(=O)c2ccc(F)cc2F)c1` (centres unmarked) [Compound 4c], the pIC50 on GlyT1 [1] is 7.74.
`Cn1cnc(S(=O)(=O)N2CCC3(CC2)c2ccccc2CC3NC(=O)c2c(F)cccc2F)c1` (centres unmarked) [Compound 4d]: on GlyT1 [1], the pIC50 was 8.00.
Consider `Cn1cnc(S(=O)(=O)N2CCC3(CC2)c2ccccc2CC3NC(=O)c2ccc(Cl)c(Cl)c2)c1` (centres unmarked) [Compound 4e], for which, at GlyT1 [1], the pIC50 is 7.28.
Consider `Cn1cnc(S(=O)(=O)N2CCC3(CC2)c2ccccc2CC3NC(=O)c2ccccc2C(F)(F)F)c1` (centres unmarked) [Compound 4f], for which, at GlyT1 [1], the pIC50 was 7.62.
Take `Cn1cnc(S(=O)(=O)N2CCC3(CC2)c2ccccc2CC3NC(=O)c2cccc(C(F)(F)F)c2)c1` (centres unmarked) [Compound 4g]: the pIC50 at GlyT1 [1] was 6.51.
With `CCCS(=O)(=O)N1CCC2(CC1)c1ccccc1CC2NC(=O)c1ccc(Cl)cc1` (centres unmarked) [Compound 5a], on GlyT1 [1], the pIC50 was 6.00.
For `CCCS(=O)(=O)N1CCC2(CC1)c1ccccc1CC2NC(=O)c1c(F)cccc1F` (centres unmarked) [Compound 5b], the pIC50 at GlyT1 [1] is 5.94.
Still for that read-out and setting: the result for `CCCS(=O)(=O)N1CCC2(CC1)c1ccccc1CC2NC(=O)c1ccc(Cl)c(Cl)c1` (centres unmarked) [Compound 5c] reads 6.22; that for `CCCS(=O)(=O)N1CCC2(CC1)c1ccccc1CC2NC(=O)c1ccccc1C(F)(F)F` (centres unmarked) [Compound 5d], 6.17; that for `CCCS(=O)(=O)N1CCC2(CC1)c1ccccc1CC2NC(=O)c1cccc(C(F)(F)F)c1` (centres unmarked) [Compound 5e], 5.80.
Consider `CCCS(=O)(=O)N1CCC2(CC1)c1ccccc1CC2NC(=O)c1ccc(C(F)(F)F)cc1` (centres unmarked) [Compound 5f], for which the pIC50 on GlyT1 [1] was 6.57.
The same measure, in the same setting: the result for `CCCS(=O)(=O)N1CCC2(CC1)c1ccccc1CC2NC(=O)c1ccccc1OC` (centres unmarked) [Compound 5g] reads 5.57.
For `CCCS(=O)(=O)N1CCC2(CC1)c1ccccc1CC2NC(=O)c1ccccc1I` (centres unmarked) [Compound 5h], the pIC50 on GlyT1 [1] is 6.58.
On to `Cn1cnc(S(=O)(=O)N2CCC3(CC2)c2ccccc2CC3NC(=O)c2ccc(Cl)cc2Cl)c1` (centres unmarked) [Compound 7a], for which the pIC50 at GlyT1 [1] is 5.46.
Regarding `CCCS(=O)(=O)N1CCC2(CC1)c1ccccc1CC2NC(=O)c1ccc(Cl)cc1Cl` (centres unmarked) [Compound 7d], on GlyT1 [1], the pIC50 is 7.28.
In the case of `CCCCS(=O)(=O)N1CCC2(CC1)c1ccccc1CC2NC(=O)c1ccc(Cl)cc1Cl` (centres unmarked) [Compound 9UD], the “Vmax of [14C]-glycine transport” value on GlyT1 [3] (in the presence of 400 nM 9UD, control Vmax=20495 CPM) was 20699 CPM. Moreover, at GlyT1 [3], the “Mode of inhibition of GlyT1 glycine transport” value is “competitive inhibition”.
Consider `CN(CCC(Oc1ccc(-c2ccccc2)cc1)c1ccc(F)cc1)CC(=O)O` (centres unmarked) [NFPS, (N-[3-(4′-fluorophenyl)-3-(4′-phenylphenoxy)propyl])sarcosine], for which the Km on GlyT1 [3] (in the presence of 1 nM NFPS, control Km=28.97 μM, read-out: Km of [14C]-glycine transport) was 30.7 µM. Further, at GlyT1 [3] (in the presence of 1 nM NFPS, control Vmax=16056 CPM), the “Vmax of [14C]-glycine transport” value was determined as 9298 CPM. Moreover, the “Mode of inhibition of GlyT1 glycine transport” value at GlyT1 [3] is recorded as “non-competitive inhibition”.
